Values quoted from earlier work in patent publication US20030105165A1, “Gap junctions and EDHF” (priority 2001, published 2003).

Test system: rabbit arteries
Details: endothelium-, gap junction- and cAMP-dependent; cited from earlier work

For CCCCC/C=C\C/C=C\C/C=C\CC1OC1CCCC(=O)O (stereo not shown) [5,6-EET], the “Relaxation of rabbit arteries by EET regioisomers” value is listed as “evokes relaxations”.
